Target: RET G810R (Homo sapiens (Human), UniProt P07949, G810R)
Assay: HTRF KinEASE-TK kinase activity test, RET G810R
Conditions: for IC50: read-out: RET G810R IC50, HTRF kinase assay; for inhibitory activity against RET G810R relative to that of selpercatinib (LOXO-292): fold versus selpercatinib (LOXO-292)

RET G810R, sequence (P07949 29-1114 G810R): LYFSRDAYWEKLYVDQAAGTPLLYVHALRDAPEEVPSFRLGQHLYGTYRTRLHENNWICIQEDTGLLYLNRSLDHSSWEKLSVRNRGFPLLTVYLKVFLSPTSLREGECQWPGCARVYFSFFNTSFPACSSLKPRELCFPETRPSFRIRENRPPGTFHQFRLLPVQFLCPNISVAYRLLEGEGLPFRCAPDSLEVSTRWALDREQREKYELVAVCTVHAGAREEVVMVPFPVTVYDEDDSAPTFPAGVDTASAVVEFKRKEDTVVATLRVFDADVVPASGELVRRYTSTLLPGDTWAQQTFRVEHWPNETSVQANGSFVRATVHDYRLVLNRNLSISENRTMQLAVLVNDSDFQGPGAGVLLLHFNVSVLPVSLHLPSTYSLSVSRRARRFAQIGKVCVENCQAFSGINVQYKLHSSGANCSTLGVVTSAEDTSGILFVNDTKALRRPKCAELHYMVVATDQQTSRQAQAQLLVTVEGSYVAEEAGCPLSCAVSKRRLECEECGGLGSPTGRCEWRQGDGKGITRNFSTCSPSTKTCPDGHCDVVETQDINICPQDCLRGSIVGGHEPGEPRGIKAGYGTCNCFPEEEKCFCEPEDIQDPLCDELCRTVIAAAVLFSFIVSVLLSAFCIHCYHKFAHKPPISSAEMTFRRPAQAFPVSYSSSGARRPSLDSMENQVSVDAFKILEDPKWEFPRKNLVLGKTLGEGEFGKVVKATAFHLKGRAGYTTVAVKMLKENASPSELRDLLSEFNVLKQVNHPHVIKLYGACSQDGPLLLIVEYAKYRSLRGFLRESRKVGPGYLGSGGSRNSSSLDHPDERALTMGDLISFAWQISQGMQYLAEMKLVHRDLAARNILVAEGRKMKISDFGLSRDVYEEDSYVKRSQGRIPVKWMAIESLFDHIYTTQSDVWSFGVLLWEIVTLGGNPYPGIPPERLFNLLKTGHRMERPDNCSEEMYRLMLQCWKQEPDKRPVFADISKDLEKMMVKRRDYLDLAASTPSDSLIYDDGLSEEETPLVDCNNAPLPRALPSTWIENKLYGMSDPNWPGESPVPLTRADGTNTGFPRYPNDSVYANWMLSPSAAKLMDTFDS

Row | SMILES | IC50 [nM] | inhibitory activity against RET G810R relative to that of selpercatinib (LOXO-292) [times]
1 | CCOc1cc(-c2ccc(N3CCC(Oc4ccccn4)CC3)nc2)c2c3cn[nH]c3nn2c1 [Compound 103, 6-ethoxy-4-(6-(4-(pyridin-2-yloxy)piperidin-1-yl)pyridin-3-yl)-1H-pyrazolo[3′,4′:3,4]pyrazolo[1,5-α]pyridine] | 11.1 | 
2 | CCOc1cc(-c2ccc(N3C[C@H]4CN(C(=O)c5c(F)cccc5Cl)C[C@H]4C3)nc2)c2c3cn[nH]c3nn2c1 [Compound 118, N-((3aR,6aS)-5-(5-(6-ethoxy-1H-pyrazolo[3′,4′:3,4]pyrazolo[1,5-α]pyridin-4-yl)pyridin-2-yl)hexahydropyrrolo[3,4-c]pyrrol-2(1H)-yl)-2-chloro-6-fluorobenzamide] | 7.7 | 
3 | CCOc1cc(-c2ccc(N3C[C@@H]4[C@H](C3)[C@@H]4NCc3ccc(OC)nc3)nc2)c2c3cn[nH]c3nn2c1 [Compound 173] | 12.5 | 
4 | CCOc1cc(-c2ccc(N3CC4CC(C3)N4Cc3ccc(OC)nc3)nc2)c2c3c(C#N)n[nH]c3nn2c1 [Compound 248, 3-cyano-6-ethoxy-4-(6-(6-((6-methoxypyridin-3-yl)methyl)-3,6-diazabicyclo[3.1.1]heptan-3-yl)pyridin-3-yl)-1H-pyrazolo[3′,4′:3,4]pyrazolo[1,5-α]pyridine] | 15.5 | 
5 | CCOc1cc(-c2ccc(N3CCN(Cc4ccc(OC)nc4)C4(CC4)C3)nc2)c2c3cn[nH]c3nn2c1 [Compound 165, 6-ethoxy-4-(6-(4-((6-methoxypyridin-3-yl)methylene)-4,7-diazaspiro[2.5]octan-7-yl)pyridin-3-yl) -1H-pyrazolo[3′,4′:3,4]pyrazolo[1,5-α]pyridine] | 38.3 | 
6 | CCOc1cc(-c2ccc(N3C[C@@H]4C5CCC([C@@H]4C3)N5C(=O)c3c(F)cccc3Cl)nc2)c2c3cn[nH]c3nn2c1 [Compound 180, (2-chloro-6-fluorophenyl)((3aR,7aS)-2-(5-(6-ethoxy-1H-pyrazolo[3′,4′:3,4]pyrazolo[1,5-α]pyridin-4-yl)pyridin-2-yl)octahydro-1H-4,7-epiminoisoindol-8-yl)methanone] | 9.7 | 
7 | CCOc1cc(-c2ccc(N3C4CCC3CN(C(=O)c3c(F)cccc3Cl)C4)nc2)c2c3cn[nH]c3nn2c1 [Compound 157, (2-chloro-6-fluoro)((1R,5S)-8-(5-(6-ethoxy-1H-pyrazolo[3′,4′:3,4]pyrazolo[1,5-α]pyridin-4-yl)pyridin-2-yl)-3,8-diazabicyclo[3.2.1]octan-3-yl)benzamide] | 8.6 | 
8 | CCOc1cc(-c2ccc(N3CCC4(CCCN4Cc4ccc(OC)nc4)CC3)nc2)c2c3cn[nH]c3nn2c1 [Compound 207, 6-ethoxy-4-(6-(1-((6-methoxypyridin-3-yl)methylene)-1,8-diazaspiro[4.5]octan-8-yl)pyridin-3-yl) -1H-pyrazolo[3′,4′:3,4]pyrazolo[1,5-α]pyridine] | 49 | 
9 | CCOc1cc([C@H]2CC[C@](OC)(C(=O)N[C@@H](C)c3ccc(-n4cc(F)cn4)nc3)CC2)c2c3cn[nH]c3nn2c1 [Compound 258, (1S,4R)-4-(6-ethoxy-1H-pyrazolo[3′,4′:3,4]pyrazolo[1,5-α]pyridin-4-yl)-N—((S)-1-(6-(4-fluoro-1H-pyrazol-1-yl)pyridin-3-yl)ethyl)-1-methoxycyclohexane-1-carboxamide] | 9.9 | 
10 | CCOc1cc(-c2ccc(N3CCC4(CCN(C(=O)c5c(F)cccc5Cl)C4)CC3)nc2)c2c3cn[nH]c3nn2c1 [Compound 208, N-(8-(5-(6-ethoxy-1H-pyrazolo[3′,4′:3,4]pyrazolo[1,5-α]pyridin-4-yl)pyridin-2-yl)-2,8-diazaspiro [4.5]decan-2-yl)-2-chloro-6-fluorobenzamide] | 24.1 | 
11 | C=CC(=O)N1C2CC1CN(c1ccc(-c3cc(OCC)cn4nc5[nH]ncc5c34)cn1)C2 [Compound 250, 1-(3-(5-(6-ethoxy-1H-pyrazolo[3′,4′:3,4]pyrazolo[1,5-α]pyridin-4-yl)pyridin-2-yl)-3,6-diazabicyclo[3.1.1]heptan-6-yl)prop-2-en-1-one] | 40.8 | 

Compounds with a lower IC50, results first:

Row | IC50 [nM] | inhibitory activity against RET G810R relative to that of selpercatinib (LOXO-292) [times] | SMILES
12 | 1.9 | ≥ 10 | CCOc1cc(-c2ccc(N3CC[C@H](NC(=O)c4cc(F)ccc4Cl)[C@@H](O)C3)nc2)c2c3cn[nH]c3nn2c1 [Compound 43]
13 | 6.5 |  | CCOc1cc(-c2ccc(N3CCC(C)(NC(=O)c4cc(F)ccc4C)CC3)nc2)c2c3cn[nH]c3nn2c1 [Compound 1, N-(1-(5-(6-ethoxy-1H-pyrazolo[3′,4′:3,4]pyrazolo[1,5-α]pyridin-4-yl)pyridin-2-yl)-4-methylpiperidin-4-yl)-5-fluoro-2-methylbenzamide]
14 | 6.9 |  | CCOc1cc(-c2cnc(N3CCC(C)(NC(=O)c4c(F)ccc(F)c4F)CC3)cn2)c2c3cn[nH]c3nn2c1 [Compound 57, N-(1-(5-(6-ethoxy-1H-pyrazolo[3′,4′:3,4]pyrazolo[1,5-α]pyridin-4-yl)pyrazin-2-yl)-4-methylpiperidin-4-yl)-2,3,6-trifluorobenzamide]
15 | 1.3 | ≥ 10 | CCOc1cc(-c2ccc(N3CC[C@H](NC(=O)c4c(F)ccc(F)c4F)[C@H](O)C3)nc2)c2c3cn[nH]c3nn2c1 [Compound 274, N-((3R,4S)-1-(5-(6-ethoxy-1H-pyrazolo[3′,4′:3,4]pyrazolo[1,5-α]pyridin-4-yl)pyridin-2-yl)-3-hydroxypiperidin-4-yl)-2,3,6-trifluorobenzamide]
16 | 2.9 | ≥ 10 | CCOc1cc(-c2ccc(N3CC[C@H](NC(=O)c4c(C)cccc4Cl)[C@@H](N)C3)nc2)c2c3cn[nH]c3nn2c1 [Compound 48, N-((3S,4S)-3-amino-1-(5-(6-ethoxy-1H-pyrazolo[3′,4′:3,4]pyrazolo[1,5-α]pyridin-4-yl)pyridin-2-yl)piperidin-4-yl)-2-chloro-6-methylbenzamide]
17 | 6.3 |  | CCOc1cc(-c2ccc(N3CCC(CN4CCCC4)(C(=O)NCC(C)C)CC3)nc2)c2c3cn[nH]c3nn2c1 [Compound 37, 4-(pyrrolidin-1-ylmethyl)-1-(5-(6-ethoxy-1H-pyrazolo[3′,4′:3,4]pyrazolo[1,5-α]pyridin-4-yl)pyridin-2-yl)-N-isobutylpiperidine-4-carboxamide]
18 | 3.5 | ≥ 10 | CCOc1cc(-c2ccc(N3C[C@H]4C[C@H](NC(=O)c5c(F)cccc5Cl)C[C@H]4C3)nc2)c2c3cn[nH]c3nn2c1 [Compound 174]
19 | 1.8 | ≥ 10 | CCOc1cc(-c2ccc(N3CC[C@H](NC(=O)c4cc(F)ccc4F)[C@H](O)C3)nc2)c2c3cn[nH]c3nn2c1 [Compound 273, N-((3R,4S)-1-(5-(6-ethoxy-1H-pyrazolo[3′,4′:3,4]pyrazolo[1,5-α]pyridin-4-yl)pyridin-2-yl)-3-hydroxypiperidin-4-yl)-2,5-difluorobenzamide]
20 | 1.6 | ≥ 10 | O=C(N[C@H]1CCN(c2ccc(-c3cc(OCC(F)F)cn4nc5[nH]ncc5c34)cn2)C[C@H]1O)c1cc(F)ccc1Cl [Compound 293, N-((3R,4S)-1-(5-(6-(2,2-difluoroethoxy)-1H-pyrazolo[3′,4′:3,4]pyrazolo[1,5-α]pyridin-4-yl)pyridin-2-yl)piperidin-3-hydroxypiperidin-4-yl)-2-chloro-5-fluorobenzamide]
21 | 2.1 | ≥ 10 | O=C(N[C@H]1CCN(c2ccc(-c3cc(OCCF)cn4nc5[nH]ncc5c34)cn2)C[C@@H]1O)c1c(F)cccc1F [Compound 295, N-((3S,4S)-1-(5-(6-(2-fluoroethoxy)-1H-pyrazolo[3′,4′:3,4]pyrazolo[1,5-α]pyridin-4-yl)pyridin-2-yl)-3-hydroxypiperidin-4-yl)-2,6-difluorobenzamide]
22 | 5.6 |  | CCOc1cc(-c2cnc(N3CCC(C)(NC(=O)c4cc(F)ccc4Cl)CC3)cn2)c2c3cn[nH]c3nn2c1 [Compound 58, 2-chloro-N-(1-(5-(6-ethoxy-1H-pyrazolo[3′,4′:3,4]pyrazolo[1,5-α]pyridin-4-yl)pyrazin-2-yl)-4-methylpiperidin-4-yl)-5-fluorobenzamide]
23 | 4.2 |  | CCOc1cc(-c2ccc(N3CC[C@H](NC(=O)c4ncccc4C(F)(F)F)[C@H](O)C3)nc2)c2c3cn[nH]c3nn2c1 [Compound 284, N-((3R,4S)-1-(5-(6-ethoxy-1H-pyrazolo[3′,4′:3,4]pyrazolo[1,5-α]pyridin-4-yl)pyridin-2-yl)-3-hydroxypiperidin-4-yl)-3-(trifluoromethyl)picolinamide]
24 | 2.8 | ≥ 10 | O=C(N[C@H]1CCN(c2ccc(-c3cc(OCC(F)F)cn4nc5[nH]ncc5c34)cn2)C[C@H]1O)c1c(F)cccc1F [Compound 268, N-((3R,4S)-1-(5-(6-(2,2-difluoroethoxy)-1H-pyrazolo[3′,4′:3,4]pyrazolo[1,5-α]pyridin-4-yl)pyridin-2-yl)-3-hydroxypiperidin-4-yl)-2,6-difluorobenzamide]
25 | 3 | ≥ 10 | O=C(N[C@H]1CCN(c2ccc(-c3cc(OCCF)cn4nc5[nH]ncc5c34)cn2)C[C@H]1O)c1c(F)cccc1F [Compound 267, N-((3R,4S)-1-(5-(6-(2-fluoroethoxy)-1H-pyrazolo[3′,4′:3,4]pyrazolo[1,5-α]pyridin-4-yl)pyridin-2-yl)-3-hydroxypiperidin-4-yl)-2,6-difluorobenzamide]
26 | 6.4 |  | CCOc1cc(-c2ccc(N3CCC(Oc4ccc(C)nn4)CC3)nc2)c2c3cn[nH]c3nn2c1 [Compound 104, 6-ethoxy-4-(6-(4-((6-methylpyridazin-3-yl)oxy)piperidin-1-yl)pyridin-3-yl)-1H-pyrazolo[3′,4′:3,4]pyrazolo[1,5-α]pyridine]
27 | 2.1 | ≥ 10 | CCOc1cc(-c2ccc(N3CC[C@H](NC(=O)c4ccccc4C#N)[C@H](O)C3)nc2)c2c3cn[nH]c3nn2c1 [Compound 280, 2-cyano-N-((3R,4S)-1-(5-(6-ethoxy-1H-pyrazolo[3′,4′:3,4]pyrazolo[1,5-α]pyridin-4-yl)pyridin-2-yl)-3-hydroxypiperidin-4-yl)benzamide]
